# Tested on: P388
# Assay: Cytotoxicity against mouse P388 cells
# Assay type: functional
# Conditions: read-out: ED50 (the source's name)
compound,measurement,value
C\C(=C/C=C/C(C)=C1/C(=O)C[C@H]2[C@@]3(C)CCC(=O)C(C)(C)[C@@H]3CC[C@]12C)c1ccc(C)c(=O)o1 [STELLETIN A],EC50,1 ng/mL

# From ChEMBL document CHEMBL1148077, “Stellettin A, a new triterpenoid pigment from the marine sponge Stelletta tenuis” (1994)
